Tests used:
[1] = tested on: HdhQ111 / HdhQ7 mouse striatal cells; test: Mitochondrial membrane potential (TMRM), mouse striatal cells; type: cell-based
Procedure: Immortalized striatal cell lines HdhQ111 mutant and HdhQ7 wt cells were obtained from the CHDI Foundation. Cells were cultured in DMEM supplemented with 10% FBS, 100 μg/ml penicillin, 100 μg ml^−1 streptomycin, and 400 μg ml^−1 G418. Cells were grown at 33 °C in a 5% CO2 incubator. Cells within 14 passages were used in all experiments.
For silencing Htt and VCP in HD striatal cells, control siRNA, mouse Htt and mouse VCP siRNA were purchased from Thermo Fisher Scientific. HdhQ7 and HdhQ111 cells were transfected either with control siRNA, or Htt or VCP siRNA using TransIT-TKO Transfection Reagent (Mirus Bio, LLC), according to the manufacturer's instructions. The sequences for the siRNAs used in this study are as follows: mouse Htt, 5′-[…]-3′; Mouse VCP, 5′-GAGAGCAACCUUCGUAAG-3′; control non-targeting siRNA, 5′-TTCTCCGAACGTGTCACGT-3′.
To determine mitochondrial mass in cultures, cells were stained with antibodies against Tom20 or stained with Mitotracker green. The fluorescent density of Tom20 (1:500) or mitotracker green was quantitated using NIH Image J software. To measure the membrane potential of mitochondria in cultures, cells were incubated with 0.25 μM tetra-methyl rhodamine (Invitrogen Life Science) for 20 min at 37 °C. To determine lysosomal activity, cells were incubated with Lyso-ID Red dye (Enzo Life Science) for 30 min at 37 °C. The images were visualized by microscope and quantitation of the density of red fluorescence was carried out using NIH ImageJ software. For immunocytochemistry study, at least 100 cells per group were counted and quantitated by an observer blind to experimental conditions.

[2] = tested on: HD patient-iPS cell derived neurons; test: Mitochondrial membrane potential (TMRM), iPS neurons; type: cell-based, human; settings: 1 μM per day for 5 days
Procedure: iPS cells from a normal subject and a HD patient (carrying 41 CAG repeats) were differentiated into neurons using the protocol from our previous studies. Briefly, iPS cells were plated onto 6-well plates precoated with 2.5% Matrigel and allowed to reach 90% confluence in feeder-free medium. For the first 10 days, cells were treated with SB431542 (10 μM; Tocris Bioscience) and Noggin (100 ng/ml) in Neural Media (NM) containing Neurobasal and DMEM (1:1), B27 supplement minus vitamin A (50 × , Invitrogen), N2 supplement (100 × , Invitrogen), GlutaMax (Invitrogen, 100 × ), FGF2 ([…]) and EGF ([…]), 100 units per ml penicillin and 100 μg ml^−1 streptomycin). […]
To determine mitochondrial mass in cultures, cells were stained with antibodies against Tom20 or stained with Mitotracker green. The fluorescent density of Tom20 (1:500) or mitotracker green was quantitated using NIH Image J software. […] The images were visualized by microscope and quantitation of the density of red fluorescence was carried out using NIH ImageJ software. For immunocytochemistry study, at least 100 cells per group were counted and quantitated by an observer blind to experimental conditions.

YAC128 mice = test: VCP mitochondrial level, YAC128 mouse striatum; type: in vivo; settings: YAC128, 3 mg kg^−1 per day from 3 to 6 months versus TAT, n=6
Procedure: Cells were washed with cold PBS and incubated on ice for 30 min in a lysis buffer (250 mM sucrose, 20 mM HEPES-NaOH, pH 7.5, 10 mM KCl, 1.5 mM MgCl2, 1 mM EDTA, protease inhibitor cocktail and phosphatase inhibitor cocktail). Mouse brains were minced and homogenized in the lysis buffer and then placed on ice for 30 min. Collected cells or tissue were disrupted 20 times by repeated aspiration through a 25-gauge needle, followed by a 30-gauge needle. The homogenates were spun at 800 g for 10 min at 4 °C, and the resulting supernatants were spun at 10,000 g for 20 min at 4 °C. The pellets were washed with lysis buffer and spun at 10,000 g again for 20 min at 4 °C. The final pellets were suspended in lysis buffer containing 1% Triton X-100 and were mitochondrial-rich lysate fractions. The supernatant was centrifuged at 100,000 g, 4 °C, for 1 h, the pellets were suspended in lysis buffer containing 1% Triton X-100 as ER fractions. The final supernatant was cytosolic fractions. The mitochondrial proteins VDAC, the ER protein WFS1 and the cytosolic protein Enolase were used as loading controls for mitochondrial, ER and cytosolic fractions, respectively.
YAC128 (FVB-Tg(YAC128)53Hay/J, JAX stock number: 004938) breeders (FVB/N genetic background) were purchased from Jackson Laboratories. […]
Protein concentrations were determined by Bradford assay. […]

R6/2 mice = test: Body weight and survival, R6/2; type: in vivo, mouse; settings: R6/2, 5–13 weeks of age, 3 mg kg^−1 per day, n=15
Procedure: Male hemizygous R6/2 mice (Tg) and their age-matched wt littermates (5-week-old) were implanted with a 28-day osmotic pump (Alzet, Cupertino CA) containing TAT control peptide or HV-3 peptide, which delivered peptides to the mice at a rate of 3 mg kg^−1 per day. The first pump was implanted subcutaneously in the back of 5-week-old mice between the shoulders and replaced once, after 4 weeks.
The body weight and survival rate of HD mice and wt littermates were recorded throughout the study period.

## CSCC[C@H](NC(=O)[C@@H](NC(=O)[C@H](CC(C)C)NC(=O)[C@@H](NC(=O)[C@H](Cc1c[nH]cn1)NC(=O)CCCCCNC(=O)[C@H](CCCNC(=N)N)NC(=O)[C@H](CCCNC(=N)N)NC(=O)[C@H](CCCNC(=N)N)NC(=O)[C@H](CCC(N)=O)NC(=O)[C@H](CCCNC(=N)N)NC(=O)[C@H](CCCNC(=N)N)NC(=O)[C@H](CCCCN)NC(=O)[C@H](CCCCN)NC(=O)[C@H](CCCNC(=N)N)NC(=O)CNC(=O)[C@@H](N)Cc1ccc(O)cc1)C(C)C)C(C)C)C(=O)N[C@@H](CS)C(=O)N[C@@H](C)C(=O)N[C@H](C(N)=O)[C@@H](C)O [HV-3]
[1]; HdhQ111 cells, HV-3 3 uM/day for 3 days versus TAT
  mitochondrial membrane potential: markedly improved the mitochondrial membrane potential
[1]; HdhQ111 cells, HV-3 + VCP siRNA
  mitochondrial membrane potential in presence of VCP siRNA: no additional protection on the MMP
[1]; wt counterparts of the HD models
  mitochondrial membrane potential, wt: only minor effects
[2]
  mitochondrial membrane potential: improved MMP
YAC128 mice
  VCP translocation to mitochondria in striatum: blocked VCP translocation to mitochondria
R6/2 mice
  body weight: increased body weight
  survival rate: increased body weight and survival rate

Source: PMC5007466, “VCP recruitment to mitochondria causes mitophagy impairment and neurodegeneration in models of Huntington's disease” (Nature Communications, 2016)
